Reference: article PMC7570859, “Simultaneous Quantification and Pharmacokinetic Study of Five Homologs of Dalbavancin in Rat Plasma Using UHPLC-MS/MS” (Molecules, 2020)
Like-named read-outs stand apart in the source and are kept apart here.

Experiments:
[1] = rat, in vivo, iv, 40 mg/kg
Procedure: (§1) A total of 20 animal plasma samples were analyzed using the verified UHPLC-MS/MS detection method to evaluate 28-day multiple-dose pharmacokinetics of dalbavancin hydrochloride injected daily in rats.
(§2) Blood samples were collected and centrifuged (5417R centrifuge, Eppendorf AG, Hamburg, Germany) at 835× g for 10 min to separate the upper plasma. Then, 50 μL of plasma was mixed with 200 μL of methanol (containing dalbavancin B0-D8 isotope internal standard solutions at a concentration of 100 ng/mL), after which the solution was swirled with a multi-tube vortex mixer (Allsheng, Hangzhou, China) for 10 min and centrifuged at 12,000× g for 10 min. To obtain a cleaner supernatant, it was further centrifuged at 12,000× g for 5 min before sample injection.
(§3) The UHPLC system consisted of an ACQUITY UPLC I-Class (Waters Corp., Milford, MA, USA) and separation was achieved on an ACQUITY UPLC BEH C18 (2.1 mm × 100 mm, 1.7 μm, Waters Corp.). The mobile phase contained 0.1% formic acid (phase A) and acetonitrile (phase B), while the gradient elution procedure was as follows; 0.00–1.00 min: 20%B→30%B, 1.00–6.00 min: 30%B→33%B, 6.01–7.00 min: 95%B, 7.00–7.01 min: 95%B→20%B, 7.01–8.00 min: 20%B. The flow rate was 0.300 mL/min, and the sample injection volume was 5.0 μL. The autosampler was maintained at 6 °C.
(§4) The mass spectrometry system used was Xevo TQ triple quadrupole MS/MS (Waters Corp.), equipped with ESI source. After injecting 500 ng/mL of dalbavancin component combined solution and dalbavancin isotope internal standard solution into the mass spectrometer, the optimized parameters of the instrument were obtained as follows: capillary voltage, 3.00 kV; ion source temperature, 150 °C; desolvation gas temperature, 350 °C; collision gas flow rate, 0.15 mL/min; desolvation gas flow rate, 650 L/h. SRM was used for monitoring the positive ion mode and the total analysis run time was 8 min. Data was processed using UNIFI v1.9.3 software (Waters Corp.).
(§5) A total of 20 SD rats (weighing approximately 200 g each) were selected and divided into two equal groups, with each group containing 5 male and 5 female rats. Pharmacokinetic experiments were conducted for single-dose and multiple-dose administration of dalbavancin hydrochloride. The route of administration was IV, with an administration volume of 5 mL/kg and a dosage was 40 mg/kg. Blood sampling time points of the single-dose administration group were before administration (0 h) and 5 min, 3 h, 8 h, 24 h, 72 h, 144 h, and 216 h post administration. Blood was collected on day 28 for the multiple-dose administration group, and the time points of blood collection were the same as those of single-dose administration. The blood samples collected were immediately separated using centrifugation at 12,000× g for 10 min, and then, the plasma were transferred and stored at −16 °C to −24 °C until analysis.
(§6) Microsoft Office Excel 2007 and IBM SPSS Statistics 19.0 were used for data processing and statistical calculation using two-tailed Student’s t-test. Data Analysis System 3.1 software (DAS, Shanghai, China) was used to analyze and calculate AUC(0–∞), T1/2, Cmax and other parameters using the non-compartmental model.

[2] = in vivo; cited from earlier work
[3] = Pharmacokinetic study of dalbavancin components in rat plasma after IV dalbavancin hydrochloride (UHPLC-MS/MS); conditions: SD rats, IV 40 mg/kg dalbavancin hydrochloride, mean ± SD, n = 10; for AUC(0–t): 0 to 216 h; for AUC(0–t) / AUC(0–∞): UHPLC-MS/MS, non-compartmental; for MRT / half-life / Vd: both, Sprague-Dawley, rat, iv, 40 mg/kg; for MRT: MRT(0–t); for Vd: Vz (apparent volume of distribution)
Procedure: as §1, §2, §3, §4, §5, §6

[4] = D28, multiple-dose group, daily for 28 days
[5] = T1/2, D28, multiple-dose group, daily for 28 days

CN[C@H]1C(=O)N[C@@H]2Cc3ccc(cc3)Oc3cc4cc(c3O[C@@H]3O[C@H](C(=O)O)[C@@H](O)[C@H](O)[C@H]3NC(=O)CCCCCCCCC(C)C)Oc3ccc(cc3Cl)[C@@H](O)[C@@H]3NC(=O)[C@H](NC(=O)[C@@H]4NC(=O)[C@@H](NC2=O)c2cc(cc(O)c2Cl)Oc2cc1ccc2O)c1ccc(O)c(c1)-c1c(O[C@H]2O[C@H](CO)[C@@H](O)[C@H](O)[C@@H]2O)cc(O)cc1[C@@H](C(=O)NCCCN(C)C)NC3=O [B0]
MRT(0–t) ([1]; both, Sprague-Dawley): 23.0 ± 0.9 h | T1/2 ([1]; both, Sprague-Dawley): 74.6 ± 45.9 h | Vz (apparent volume of distribution) ([1]; both, Sprague-Dawley): 0.7 ± 0.5 L/kg | AUC(0–t) [1]: 5776.5 ± 2593.2 µg·h/mL | AUC(0–∞) [1]: 6566.7 ± 1820.3 µg·h/mL | Cmax [1]: 437300 ± 160300 ng/mL | plasma AUC(0–∞) relative to the other components combined [1]: approximately 5.8 times

Dalbavancin
adverse event: diarrhea [2]: 4.4% | adverse event: headache [2]: 4.7% | adverse event: nausea [2]: 5.5%

CC(C)CCCCCCCCC(=O)N[C@H]1[C@H](Oc2c3cc4cc2Oc2ccc(cc2Cl)[C@@H](O)[C@@H]2NC(=O)[C@H](NC(=O)[C@@H]4NC(=O)[C@H]4NC(=O)[C@@H](Cc5ccc(cc5)O3)NC(=O)[C@H](N(C)C)c3ccc(O)c(c3)Oc3cc(O)c(Cl)c4c3)c3ccc(O)c(c3)-c3c(O[C@H]4O[C@H](CO)[C@@H](O)[C@H](O)[C@@H]4O)cc(O)cc3[C@@H](C(=O)NCCCN(C)C)NC2=O)O[C@H](C(=O)O)[C@@H](O)[C@@H]1O [B2]
AUC(0–t) ([3]; D1, single-dose group): 163.7 ± 79.5 µg·h/mL | AUC(0–∞) ([3]; D1, single-dose group): 187.2 ± 61.2 µg·h/mL | Cmax ([3]; D1, single-dose group): 23400 ± 10400 ng/mL | MRT ([3]; D1, single-dose group): 16.2 ± 2.4 h | MRT [3, 4]: 55.7 ± 4.7 h | half-life ([3]; T1/2, D1, single-dose group): 87.3 ± 68.9 h | half-life [3, 5]: 153 ± 43 h | Vd ([3]; D1, single-dose group): 28 ± 23 L/kg | Vd [3, 4]: 13.5 ± 3.4 L/kg

CN[C@H]1C(=O)N[C@@H]2Cc3ccc(cc3)Oc3cc4cc(c3O[C@@H]3O[C@H](C(=O)O)[C@@H](O)[C@H](O)[C@H]3NC(=O)CCCCCCCC(C)C)Oc3ccc(cc3Cl)[C@@H](O)[C@@H]3NC(=O)[C@H](NC(=O)[C@@H]4NC(=O)[C@@H](NC2=O)c2cc(cc(O)c2Cl)Oc2cc1ccc2O)c1ccc(O)c(c1)-c1c(O[C@H]2O[C@H](CO)[C@@H](O)[C@H](O)[C@@H]2O)cc(O)cc1[C@@H](C(=O)NCCCN(C)C)NC3=O [A0]
AUC(0–t) ([3]; D1, single-dose group): 10.5 ± 2.6 µg·h/mL | AUC(0–∞) ([3]; D1, single-dose group): 11.8 ± 2.6 µg·h/mL | Cmax ([3]; D1, single-dose group): 1800 ± 200 ng/mL | Vz (apparent volume of distribution) ([3]; D1, single-dose group): 32.9 ± 5.7 L/kg | MRT ([3]; D1, single-dose group): 5.6 ± 0.3 h | MRT [3, 4]: 60.7 ± 2.7 h | half-life ([3]; T1/2, D1, single-dose group): 6.5 ± 0.6 h | Vd [3, 4]: 196 ± 27.3 L/kg

CCCCCCCCCCC(=O)N[C@H]1[C@H](Oc2c3cc4cc2Oc2ccc(cc2Cl)[C@@H](O)[C@@H]2NC(=O)[C@H](NC(=O)[C@@H]4NC(=O)[C@H]4NC(=O)[C@@H](Cc5ccc(cc5)O3)NC(=O)[C@H](NC)c3ccc(O)c(c3)Oc3cc(O)c(Cl)c4c3)c3ccc(O)c(c3)-c3c(O[C@H]4O[C@H](CO)[C@@H](O)[C@H](O)[C@@H]4O)cc(O)cc3[C@@H](C(=O)NCCCN(C)C)NC2=O)O[C@H](C(=O)O)[C@@H](O)[C@@H]1O [A1]
AUC(0–t) ([3]; D1, single-dose group): 155.4 ± 79.9 µg·h/mL | AUC(0–∞) ([3]; D1, single-dose group): 173.1 ± 65.6 µg·h/mL | Cmax ([3]; D1, single-dose group): 14800 ± 6100 ng/mL | Vz (apparent volume of distribution) ([3]; D1, single-dose group): 9.4 ± 3.3 L/kg | MRT ([3]; D1, single-dose group): 17 ± 3.8 h | MRT [3, 4]: 53 ± 5.2 h | half-life ([3]; T1/2, D1, single-dose group): 27.5 ± 11.4 h | half-life [3, 5]: 110 ± 10.6 h | Vd [3, 4]: 10.1 ± 1.3 L/kg

CCCCCCCCCCCC(=O)N[C@H]1[C@H](Oc2c3cc4cc2Oc2ccc(cc2Cl)[C@@H](O)[C@@H]2NC(=O)[C@H](NC(=O)[C@@H]4NC(=O)[C@H]4NC(=O)[C@@H](Cc5ccc(cc5)O3)NC(=O)[C@H](NC)c3ccc(O)c(c3)Oc3cc(O)c(Cl)c4c3)c3ccc(O)c(c3)-c3c(O[C@H]4O[C@H](CO)[C@@H](O)[C@H](O)[C@@H]4O)cc(O)cc3[C@@H](C(=O)NCCCN(C)C)NC2=O)O[C@H](C(=O)O)[C@@H](O)[C@@H]1O [B1]
AUC(0–t) ([3]; D1, single-dose group): 688.2 ± 272.2 µg·h/mL | AUC(0–∞) ([3]; D1, single-dose group): 756.2 ± 191.4 µg·h/mL | Cmax ([3]; D1, single-dose group): 42900 ± 18900 ng/mL | MRT ([3]; D1, single-dose group): 32.3 ± 1.5 h | MRT [3, 4]: 68.6 ± 8.2 h | half-life ([3]; T1/2, D1, single-dose group): 29.1 ± 1.1 h | half-life [3, 5]: 87 ± 27.5 h | Vd ([3]; D1, single-dose group): 2.3 ± 0.4 L/kg | Vd [3, 4]: 1.2 ± 0.4 L/kg
